One assay deals with T1, Adenosine receptor A3 (Homo sapiens, UniProt P0DMS8).
T1 sequence (P0DMS8 whole entry): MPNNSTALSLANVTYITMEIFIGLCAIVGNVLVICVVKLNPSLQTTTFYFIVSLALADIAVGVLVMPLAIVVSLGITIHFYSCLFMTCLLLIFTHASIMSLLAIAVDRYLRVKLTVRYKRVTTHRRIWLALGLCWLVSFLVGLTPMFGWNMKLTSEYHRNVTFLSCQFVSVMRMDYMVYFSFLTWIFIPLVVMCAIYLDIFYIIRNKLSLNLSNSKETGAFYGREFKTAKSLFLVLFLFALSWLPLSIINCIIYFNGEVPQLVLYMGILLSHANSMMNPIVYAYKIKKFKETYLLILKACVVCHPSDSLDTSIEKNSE

Assay [1] addresses Neuronal acetylcholine receptor subunit alpha-4 (Homo sapiens, UniProt P43681).
The target in assay [2] is Growth hormone secretagogue receptor type 1 (Homo sapiens, UniProt Q92847).
Sequence of Growth hormone secretagogue receptor type 1 (Q92847 whole entry): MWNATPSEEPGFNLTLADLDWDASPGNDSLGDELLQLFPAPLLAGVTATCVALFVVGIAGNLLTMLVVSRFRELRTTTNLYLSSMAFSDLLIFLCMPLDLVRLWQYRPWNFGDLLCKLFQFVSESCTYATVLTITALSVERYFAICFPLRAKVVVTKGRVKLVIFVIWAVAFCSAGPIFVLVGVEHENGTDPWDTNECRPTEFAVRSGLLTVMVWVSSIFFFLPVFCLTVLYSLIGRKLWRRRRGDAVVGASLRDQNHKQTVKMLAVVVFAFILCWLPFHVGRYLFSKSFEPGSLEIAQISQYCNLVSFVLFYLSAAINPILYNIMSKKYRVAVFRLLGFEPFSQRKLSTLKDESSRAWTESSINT
Assay [3] addresses T2, Neuropeptide Y receptor type 1 (Homo sapiens, UniProt P25929).
T2 sequence (P25929 whole entry): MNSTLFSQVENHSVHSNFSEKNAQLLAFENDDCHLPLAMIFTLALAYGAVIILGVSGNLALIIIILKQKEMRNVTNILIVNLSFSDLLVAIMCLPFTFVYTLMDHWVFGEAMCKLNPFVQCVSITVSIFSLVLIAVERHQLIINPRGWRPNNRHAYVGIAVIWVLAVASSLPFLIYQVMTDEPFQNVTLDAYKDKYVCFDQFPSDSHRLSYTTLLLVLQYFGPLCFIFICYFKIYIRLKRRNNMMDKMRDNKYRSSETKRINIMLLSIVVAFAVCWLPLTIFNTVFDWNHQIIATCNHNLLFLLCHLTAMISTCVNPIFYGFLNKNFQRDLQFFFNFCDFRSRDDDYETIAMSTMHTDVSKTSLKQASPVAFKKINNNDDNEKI
Particulars: read-out: AC50.

Assay [4] addresses 3',5'-cyclic-AMP phosphodiesterase 4D (Homo sapiens, UniProt Q08499). It is filed as functional.
For assay [5], the target named is T3, Prostaglandin G/H synthase 1 (Rattus norvegicus, UniProt Q63921).
T3 sequence (Q63921 whole entry): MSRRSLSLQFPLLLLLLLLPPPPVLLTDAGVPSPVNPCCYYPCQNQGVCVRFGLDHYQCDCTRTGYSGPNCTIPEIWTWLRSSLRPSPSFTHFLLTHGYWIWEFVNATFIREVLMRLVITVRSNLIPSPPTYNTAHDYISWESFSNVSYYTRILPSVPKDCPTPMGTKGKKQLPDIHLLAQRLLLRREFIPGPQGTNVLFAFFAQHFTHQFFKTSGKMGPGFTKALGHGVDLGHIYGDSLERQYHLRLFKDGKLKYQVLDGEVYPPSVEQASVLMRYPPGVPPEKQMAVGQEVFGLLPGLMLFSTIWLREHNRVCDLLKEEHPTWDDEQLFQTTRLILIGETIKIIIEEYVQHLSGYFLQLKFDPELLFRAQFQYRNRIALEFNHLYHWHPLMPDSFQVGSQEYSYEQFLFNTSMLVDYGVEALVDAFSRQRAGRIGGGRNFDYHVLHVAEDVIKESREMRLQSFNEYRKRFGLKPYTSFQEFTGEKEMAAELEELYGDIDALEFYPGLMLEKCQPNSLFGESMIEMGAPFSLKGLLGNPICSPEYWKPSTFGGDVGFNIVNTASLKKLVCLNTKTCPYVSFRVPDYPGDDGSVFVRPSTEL
It is filed as functional.

Assay [6] concerns the target T4, Equilibrative nucleoside transporter 1 (Homo sapiens, UniProt Q99808).
T4 sequence (Q99808 whole entry): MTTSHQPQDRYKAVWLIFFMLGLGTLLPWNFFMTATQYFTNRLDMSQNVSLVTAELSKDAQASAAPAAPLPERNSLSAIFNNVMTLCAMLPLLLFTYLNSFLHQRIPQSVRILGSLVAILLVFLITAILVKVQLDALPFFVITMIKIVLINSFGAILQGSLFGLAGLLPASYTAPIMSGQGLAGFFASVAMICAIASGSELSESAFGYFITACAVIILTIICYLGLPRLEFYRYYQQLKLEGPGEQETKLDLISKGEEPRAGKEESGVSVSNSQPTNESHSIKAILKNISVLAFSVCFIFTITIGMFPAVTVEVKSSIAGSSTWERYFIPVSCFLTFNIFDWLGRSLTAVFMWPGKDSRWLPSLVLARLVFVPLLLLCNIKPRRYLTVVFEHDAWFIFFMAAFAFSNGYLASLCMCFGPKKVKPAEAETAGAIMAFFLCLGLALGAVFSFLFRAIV

Assay [7] deals with T5, Amine oxidase [flavin-containing] A (Homo sapiens, UniProt P21397).
T5 sequence (P21397 whole entry): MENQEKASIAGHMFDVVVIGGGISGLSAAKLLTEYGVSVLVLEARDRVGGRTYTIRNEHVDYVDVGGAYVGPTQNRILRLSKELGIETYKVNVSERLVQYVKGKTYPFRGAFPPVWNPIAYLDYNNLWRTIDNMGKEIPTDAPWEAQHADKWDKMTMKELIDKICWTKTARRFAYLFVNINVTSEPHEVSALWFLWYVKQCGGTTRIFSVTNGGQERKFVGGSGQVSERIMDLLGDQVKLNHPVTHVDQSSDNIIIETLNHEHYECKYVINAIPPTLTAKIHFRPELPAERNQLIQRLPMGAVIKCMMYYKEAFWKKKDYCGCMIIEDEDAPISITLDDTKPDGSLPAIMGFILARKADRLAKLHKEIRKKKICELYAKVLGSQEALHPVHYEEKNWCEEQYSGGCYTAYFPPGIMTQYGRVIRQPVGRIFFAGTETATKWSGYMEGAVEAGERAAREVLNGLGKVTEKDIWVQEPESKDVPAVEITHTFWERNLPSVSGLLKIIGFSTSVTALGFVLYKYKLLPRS
It is filed as functional.

For 15 compounds, AC50 results are on record in ChEMBL document CHEMBL5291721, “A preclinical secondary pharmacology resource illuminates target-adverse drug reaction associations of marketed drugs” (Nat Commun, 2023).

The structures appear in SMILES notation. Values joined by “and” are separate entries in the source; they are usually repeats but may differ in a detail not shown here. Equal values may be shown once.
Also: assay procedure not described here.

Sequence of Neuronal acetylcholine receptor subunit alpha-4 (P43681 whole entry): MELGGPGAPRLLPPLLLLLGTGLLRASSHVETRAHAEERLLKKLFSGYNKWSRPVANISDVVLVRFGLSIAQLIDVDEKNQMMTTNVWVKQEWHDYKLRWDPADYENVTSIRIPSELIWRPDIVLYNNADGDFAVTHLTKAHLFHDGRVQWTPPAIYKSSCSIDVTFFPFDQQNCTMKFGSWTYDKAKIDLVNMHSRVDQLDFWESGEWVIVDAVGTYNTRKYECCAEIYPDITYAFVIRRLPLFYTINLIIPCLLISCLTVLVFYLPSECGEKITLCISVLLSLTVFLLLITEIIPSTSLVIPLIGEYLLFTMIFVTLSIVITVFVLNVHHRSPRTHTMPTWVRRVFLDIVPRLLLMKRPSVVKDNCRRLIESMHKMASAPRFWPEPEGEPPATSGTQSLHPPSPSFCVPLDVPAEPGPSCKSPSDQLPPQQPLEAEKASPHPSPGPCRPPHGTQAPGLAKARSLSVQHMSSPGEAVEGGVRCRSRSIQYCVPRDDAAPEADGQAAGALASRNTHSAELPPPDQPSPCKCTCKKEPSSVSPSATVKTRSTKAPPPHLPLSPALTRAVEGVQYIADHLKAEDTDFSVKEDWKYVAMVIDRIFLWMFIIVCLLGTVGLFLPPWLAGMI
Sequence of 3',5'-cyclic-AMP phosphodiesterase 4D (Q08499 whole entry): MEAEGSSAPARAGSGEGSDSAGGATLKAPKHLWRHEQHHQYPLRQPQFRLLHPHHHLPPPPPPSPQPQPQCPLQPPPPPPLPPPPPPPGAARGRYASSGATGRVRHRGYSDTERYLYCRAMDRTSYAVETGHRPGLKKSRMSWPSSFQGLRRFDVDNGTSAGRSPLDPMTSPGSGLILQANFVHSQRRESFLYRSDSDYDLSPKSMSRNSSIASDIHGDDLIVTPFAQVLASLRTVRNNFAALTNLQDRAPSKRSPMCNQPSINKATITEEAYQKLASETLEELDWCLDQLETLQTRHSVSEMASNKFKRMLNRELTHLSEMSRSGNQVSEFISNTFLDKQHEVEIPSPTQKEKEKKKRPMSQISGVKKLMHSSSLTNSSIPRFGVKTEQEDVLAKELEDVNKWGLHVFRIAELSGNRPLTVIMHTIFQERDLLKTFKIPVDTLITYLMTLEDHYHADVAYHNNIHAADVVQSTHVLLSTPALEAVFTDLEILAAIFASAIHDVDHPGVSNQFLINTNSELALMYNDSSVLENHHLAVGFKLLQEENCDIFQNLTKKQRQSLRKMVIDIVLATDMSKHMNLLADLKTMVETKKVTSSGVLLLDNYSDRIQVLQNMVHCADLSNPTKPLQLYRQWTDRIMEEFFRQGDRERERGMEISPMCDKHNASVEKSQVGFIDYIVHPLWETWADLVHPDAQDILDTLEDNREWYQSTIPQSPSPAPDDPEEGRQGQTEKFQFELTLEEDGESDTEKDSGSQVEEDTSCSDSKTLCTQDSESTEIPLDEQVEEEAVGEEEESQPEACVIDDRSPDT

Usually AC50 stands for the concentration giving half of the maximal activity seen. For the compound `CCOC(=O)C1=C[C@]2(CC)CCCN3CCc4c(n1c1ccccc41)[C@@H]32` [VINPOCETINE], the AC50 on Adenosine receptor A3 is above 30 µM; in assay [1], above 30 µM; in assay [2], above 30 µM; in assay [3], above 30 µM; in assay [4], 8.8 µM; in assay [5] it was above 30 µM. Moreover, the AC50 in assay [6] and in assay [7] was above 30 µM in each case.
Take `COCC1=C(C(=O)O)N2C(=O)[C@@H](NC(=O)/C(=N\OC)c3csc(N)n3)[C@H]2SC1` [CEFPODOXIME]: the AC50 (on Adenosine receptor A3; in assay [1]; in assay [2]; in assay [3]; in assay [4]; in assay [5]) was above 30 µM in each case. For the same compound, the AC50 in assay [6] and in assay [7] was above 30 µM each time.
As for `C[C@H](Cc1ccc(O)c(O)c1)[C@@H](C)Cc1ccc(O)c(O)c1` [MASOPROCOL], the concentration at half-maximal activity (AC50) at Adenosine receptor A3 is 5.4 µM and 4.7 µM and 4.1 µM; in assay [1], above 30 µM; in assay [2], above 10 µM; in assay [3], above 10 µM; in assay [4] it was 4.2 µM and 2.8 µM and 3.1 µM; in assay [5] it was 18 µM and 14 µM and 12 µM. For the same compound, the AC50 in assay [6] and in assay [7] was above 30 µM each time.
For the compound `CC(C(=O)O)c1ccc(-c2ccccc2)c(F)c1` (stereo not given) [FLURBIPROFEN], the half-maximal activity concentration (AC50) on Adenosine receptor A3 is above 10 µM; in assay [1] it was above 10 µM; in assay [2], above 10 µM; in assay [3] it was above 10 µM; in assay [4], above 30 µM; in assay [5], 11 µM. In addition, the AC50 in assay [6] and in assay [7] was above 10 µM in each case.
In the case of `CC(C)(C)C(=O)OCC(=O)[C@H]1CC[C@H]2[C@@H]3CCC4=CC(=O)CC[C@]4(C)[C@H]3CC[C@]12C` [DESOXYCORTICOSTERONE PIVALATE], the concentration at half-maximal activity (AC50) at Adenosine receptor A3 was above 10 µM; in assay [1] it was above 10 µM; in assay [2], above 10 µM; in assay [3], above 10 µM; in assay [4] it was above 30 µM; in assay [5] it was above 10 µM. Besides, the half-maximal activity concentration (AC50) in assay [6] and in assay [7] was above 10 µM throughout.
`CCOC(=O)C1=C(C)NC(C)=C(C(=O)OC)C1c1cccc([N+](=O)[O-])c1` (stereo not given) [NITRENDIPINE]: the AC50 on Adenosine receptor A3 is above 30 µM; in assay [1], above 10 µM; in assay [2] it was above 30 µM; in assay [3], above 30 µM; in assay [4], above 30 µM; in assay [5], above 30 µM. Further, the AC50 was 15.9 µM in assay [6] and above 10 µM in assay [7].
Consider `[H]/N=C(/N)N/C(=N/[H])NCCc1ccccc1` [PHENFORMIN], for which the half-maximal activity concentration (AC50) at Adenosine receptor A3 is above 30 µM; in assay [1] it was above 10 µM; in assay [2], above 30 µM; in assay [3], above 30 µM; in assay [4], above 30 µM; in assay [5], above 30 µM. For the same compound, the AC50 in assay [6] and in assay [7] was above 30 µM throughout.
For `CCC(=O)O[C@H]1CC[C@H]2[C@@H]3CCC4=CC(=O)CC[C@]4(C)[C@H]3CC[C@]12C` [TESTOSTERONE PROPIONATE], the AC50 on Adenosine receptor A3 was above 10 µM; in assay [1] it was above 10 µM; in assay [2], above 10 µM; in assay [3], above 10 µM; in assay [4], above 30 µM; in assay [5], above 10 µM. In addition, the AC50 in assay [6] and in assay [7] was above 10 µM in each case.
As for `CCCCC(=O)O[C@]1(C(=O)CO)[C@@H](C)C[C@H]2[C@@H]3CCC4=CC(=O)C=C[C@]4(C)[C@@]3(F)[C@@H](O)C[C@@]21C` [BETAMETHASONE VALERATE], the AC50 on Adenosine receptor A3 was above 30 µM; in assay [1], above 10 µM; in assay [2] it was above 30 µM; in assay [3], above 30 µM; in assay [4], above 30 µM; in assay [5], above 30 µM. The half-maximal activity concentration (AC50) was above 30 µM in assay [6] and above 10 µM in assay [7].
Consider `C#C[C@]1(OC(C)=O)CC[C@H]2[C@@H]3CCC4=C/C(=N/O)CC[C@@H]4[C@H]3CC[C@@]21CC` [NORGESTIMATE], for which the AC50 at Adenosine receptor A3 was 11 µM; in assay [1], above 30 µM; in assay [2], above 30 µM; in assay [3] it was above 30 µM; in assay [4], 13 µM; in assay [5], 7.8 µM. The AC50 in assay [6] and in assay [7] was above 30 µM throughout.
Take `C=CCNc1nc(NCC=C)nc(N2CCN(C(c3ccc(F)cc3)c3ccc(F)cc3)CC2)n1` [ALMITRINE]: the AC50 (on Adenosine receptor A3; in assay [1]; in assay [2]; in assay [3]; in assay [4]; in assay [5]) was above 30 µM throughout. The AC50 in assay [6] and in assay [7] was above 30 µM each time.
On to `CCCN[C@H]1CCc2nc(N)sc2C1` [PRAMIPEXOLE], for which the half-maximal activity concentration (AC50) at Adenosine receptor A3 was above 30 µM; in assay [1] it was above 10 µM; in assay [2], above 30 µM; in assay [3] it was above 30 µM; in assay [4], above 30 µM; in assay [5] it was above 30 µM. The results for the AC50 in assay [6] and in assay [7] were above 30 µM and above 10 µM, respectively.
In the case of `Oc1ccc2c(c1)CC[C@H](c1ccccc1)[C@@H]2c1ccc(OCCN2CCCC2)cc1` [LASOFOXIFENE], the half-maximal activity concentration (AC50) is 5.8 µM at Adenosine receptor A3; above 30 µM in assay [1]; 5.2 µM in assay [2]; 25 µM in assay [3]; 15 µM in assay [4]; 5 µM in assay [5]. Further, the AC50 in assay [6] and in assay [7] was above 30 µM each time.
As for `CCC[C@H](NC(=O)[C@@H]1[C@H]2CCC[C@H]2CN1C(=O)[C@@H](NC(=O)[C@@H](NC(=O)c1cnccn1)C1CCCCC1)C(C)(C)C)C(=O)C(=O)NC1CC1`, the concentration at half-maximal activity (AC50) is above 30 µM at Adenosine receptor A3; above 10 µM in assay [1]; above 30 µM in assay [2]; above 30 µM in assay [3]; above 30 µM in assay [4]; above 30 µM in assay [5]. For the same compound, the concentration at half-maximal activity (AC50) in assay [6] is above 30 µM; in assay [7], above 10 µM.
For `CC(N)C(O)c1ccccc1` (stereo not given) [PHENYLPROPANOLAMINE], the AC50 at Adenosine receptor A3 was above 30 µM; in assay [1] it was above 10 µM; in assay [2] it was above 30 µM; in assay [3] it was above 30 µM; in assay [4], above 30 µM; in assay [5], above 30 µM. In addition, the half-maximal activity concentration (AC50) in assay [6] is above 30 µM; in assay [7] it was above 10 µM.
